# From patent publication US11813070B2, “Apparatus for measuring pressure changes in stomach” (VIPUN Medical NV, priority 2017, dated 2023)
# “Also recorded” adds a separate entry of the source.
# Legend:
# healthy subjects [1] = test: Gastric motility measured as intragastric balloon pressure (motility index, MI) after codeine or placebo; format: in vivo, human; settings: 60 mg codeine as syrup, single dose, n=6
# Excerpt: The example explored the potential of a balloon with the optimal balloon size as determined in examples 1 and the optimal balloon material characteristics as determined in examples 2. More specifically the aim was 3-fold: • To investigate whether the nasogastric balloon catheter can be used to detect (codeine-induced) decreased gastric motility. • To investigate the correlation between gastric motility and gastric emptying changes after codeine treatment. • To investigate whether the presence of an inflated intragastric balloon influences gastric motility and emptying.
# 6 healthy subjects were recruited for this study. […] Subjects were asked to come to the clinic after at least 6 hours fasting, none of the subjects were taking any medication apart from contraception pills. […]
# The 20 ml balloon experiments served as a control for the 200 ml balloon experiments since the effect of a 200 ml balloon on gastric motility and emptying is unknown. Gastric motility was assessed with a double lumen balloon catheter as described below by measuring the pressure in the balloon with an external pressure sensor. […]
# Customized computer software (Pharmlab 5.0; AstraZeneca R&D, Mölndal, Sweden) was used to record pressure as mmHg at 1 Hz. […] The baseline was calculated as follows: […]
# healthy subjects [2] = test: Gastric emptying rate by 13C-octanoic acid breath test (GET½) after codeine or placebo; format: in vivo, human; settings: inflated balloon (200 ml), 60 mg codeine as syrup, single dose, n=6
# Method: The study was designed as a randomized crossover study with 4 groups was (see schematic 14): • 20 ml balloon—placebo • 20 ml balloon—codeine • 200 ml balloon—placebo • 200 ml balloon—codeine
# The volunteers received either placebo or codeine as a syrup. After positioning the balloon catheter the balloon was filled with 50 ml for 10 minutes, hereafter the balloon was inflated to 200 ml of deflated to 20 ml depending on the treatment arm. After this and in total 20 minutes after syrup ingestion 150 ml of a nutrient drink (Nutridrink, Nutricia (NL)) was directly infused into the stomach at a constant speed of 75 ml/hour. […]
# Gastric emptying rate was measured using the ^13C-octanoic acid breath test (11). ^13C-labeled octanoic acid was solved in the nutrient drink (0.5 mg/ml). Emptying of the stomach was assessed by analysis of the exhaled ^13CO2, after oxidation of octanoic acid in the liver. […]
# 2) Gastric emptying (breath test). The ratio of ^13CO2 to ^12CO2 (molar mass 45 and 44 gr/mol) in the breath samples collected was measured by isotope ratio mass spectrometry (IRMS; ABCA, Sercon, Crewe, UK). As described before (12) a ^13C recovery rate per hour (% dosage per hour) was calculated per sample taking into account that the total dosage ^13C was administered over 2 hours. […]
compound,measurement,setting,value
COc1ccc2c3c1O[C@H]1[C@@H](O)C=C[C@H]4[C@@H](C2)N(C)CC[C@@]341 [codeine],"gastric contractility expressed as motility index (MI), codeine vs. placebo",healthy subjects [1]; deflated balloon (20 ml),did not significantly affect MI; also recorded: no effect of treatment; also recorded: No effect of codeine on motility could be detected
same,"gastric contractility expressed as motility index (MI), codeine vs. placebo",healthy subjects [1]; inflated balloon (200 ml),significant effect on MI (P<0.01); also recorded: motility was always decreased; also recorded: significant treatment effect (P<0.01); also recorded: decreased MI; also recorded: significantly decreased gastric motility
same,"gastric half emptying time (GET½), codeine vs. placebo",healthy subjects [2],GET½ increased; also recorded: significant treatment effect (P<0.05); also recorded: increased GET½; also recorded: delayed gastric emptying
same,"gastric half emptying time (GET½), codeine vs. placebo",healthy subjects [2]; listed as Codeine,delayed gastric emptying
